Values joined by “and” are separate entries in the source; they are usually repeats but may differ in a detail not shown here. Identical values can stand only once. Inconclusive results and toxic doses are left out.
Tested on: L1210 leukemia ip in BDF1 mice, survival T/C
Assay: NCI In Vivo Anticancer Drug Screen. Data for tumor model L1210 Leukemia (intraperitoneal) in B6D2F1 (BDF1) mice
Settings: endpoint: mean survival time, higher = longer survival
Summary of the method: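 Read-out is survival time, reported as the treated-group measurement over the vehicle-control measurement.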

[1] = dose: 25.0 mg/kg/injection, schedule: Q01DX009 (ip), vehicle: saline
[2] = dose: 50.0 mg/kg/injection, schedule: Q01DX001 (ip), vehicle: saline
[3] = dose: 50.0 mg/kg/injection, schedule: Q01DX009 (ip), vehicle: saline
[4] = dose: 100.0 mg/kg/injection, schedule: Q01DX001 (ip), vehicle: saline
[5] = dose: 100.0 mg/kg/injection, schedule: Q04DX003 (ip), vehicle: Klucel (hydroxypropylcellulose) (HPC)
[6] = dose: 200.0 mg/kg/injection, schedule: Q04DX003 (ip), vehicle: Klucel (hydroxypropylcellulose) (HPC)
[7] = dose: 200.0 mg/kg/injection, schedule: Q01DX001 (ip), vehicle: saline
[8] = dose: 400.0 mg/kg/injection, schedule: Q01DX001 (ip), vehicle: saline
[9] = dose: 100.0 mg/kg/injection, schedule: Q04DX003 (ip), vehicle: saline with Tween-80
[10] = dose: 200.0 mg/kg/injection, schedule: Q04DX003 (ip), vehicle: saline with Tween-80

COc1cc(NS(C)(=O)=O)ccc1Nc1c2cccc(C)c2nc2c(C)cccc12 was tested, and the T/C (dose: 6.25 mg/kg/injection, schedule: Q01DX009 (ip), vehicle: saline) was 117 % of control, the T/C (dose: 6.25 mg/kg/injection, schedule: Q01DX009 (sc), vehicle: Klucel (hydroxypropylcellulose) (HPC)) was 103 % of control and the T/C (dose: 12.5 mg/kg/injection, schedule: Q01DX009 (ip), vehicle: water) was 170 % of control. The T/C (dose: 12.5 mg/kg/injection, schedule: Q01DX009 (sc), vehicle: Klucel (hydroxypropylcellulose) (HPC)) was 104 % of control, the T/C [1] was 175 % of control and the T/C (dose: 25.0 mg/kg/injection, schedule: Q01DX009 (ip), vehicle: water) was 201 % of control. For the same compound, the T/C (dose: 25.0 mg/kg/injection, schedule: Q01DX009 (sc), vehicle: Klucel (hydroxypropylcellulose) (HPC)) was 112 % of control, the T/C [2] was 115 % of control and the T/C (dose: 50.0 mg/kg/injection, schedule: Q01DX001 (ip), vehicle: water) was 167 % of control. For the same compound, the T/C [3] was 166 % of control, the T/C (dose: 50.0 mg/kg/injection, schedule: Q01DX009 (sc), vehicle: Klucel (hydroxypropylcellulose) (HPC)) was 111 % of control and the T/C [4] was 115 % of control. For the same compound, the T/C (dose: 100.0 mg/kg/injection, schedule: Q01DX001 (ip), vehicle: water) was 213 % of control, the T/C (dose: 100.0 mg/kg/injection, schedule: Q01DX009 (ip), vehicle: water) was 107 % of control and the T/C (dose: 200.0 mg/kg/injection, schedule: Q01DX001 (ip), vehicle: water) was 224 % of control. The T/C (dose: 400.0 mg/kg/injection, schedule: Q01DX001 (ip), vehicle: water) was 102 % of control.
For Nc1ccc(-c2ccc3ccccc3n2)cc1, the T/C (dose: 12.0 mg/kg/injection, schedule: Q01DX009 (ip), vehicle: Klucel (hydroxypropylcellulose) (HPC)) was 92 % of control, the T/C (dose: 25.0 mg/kg/injection, schedule: Q01DX009 (ip), vehicle: Klucel (hydroxypropylcellulose) (HPC)) was 94 % of control and the T/C [5] was 112 % of control. For the same compound, the T/C [6] was 103 % of control.
Nc1ncnc2c1c1c(N)[nH]nc1n2C1OC(CO)C(O)C1O (stereo unspecified) was tested, and the T/C (dose: 12.5 mg/kg/injection, schedule: Q01DX009 (ip), vehicle: saline) was 114 % of control, the T/C [1] was 121 % of control and the T/C [3] was 150 % of control. The T/C [4] was 104 % of control, the T/C [7] was 106 % of control and the T/C [8] was 121 % of control.
For O=C1C=CC(=O)N1c1ccc(Cc2ccc(N3C(=O)C=CC3=O)cc2)cc1, the T/C (dose: 26.6 mg/kg/injection, schedule: Q01DX Z (ip), vehicle: methylcellulose (MC)) was 90 % of control and the T/C (dose: 40.0 mg/kg/injection, schedule: Q01DX Z (ip), vehicle: methylcellulose (MC)) was 95 % of control.
With COC[P+](c1ccccc1)(c1ccccc1)c1ccccc1 the T/C (dose: 1.25 mg/kg/injection, schedule: Q01DX001 (ip), vehicle: Klucel (hydroxypropylcellulose) (HPC)) was 96 % of control, the T/C (dose: 1.25 mg/kg/injection, schedule: Q01DX009 (ip), vehicle: Klucel (hydroxypropylcellulose) (HPC)) was 90 % of control and the T/C (dose: 2.5 mg/kg/injection, schedule: Q01DX001 (ip), vehicle: Klucel (hydroxypropylcellulose) (HPC)) was 105 % of control. For the same compound, the T/C (dose: 2.5 mg/kg/injection, schedule: Q01DX009 (ip), vehicle: Klucel (hydroxypropylcellulose) (HPC)) was 92 % of control, the T/C (dose: 5.0 mg/kg/injection, schedule: Q01DX001 (ip), vehicle: Klucel (hydroxypropylcellulose) (HPC)) was 97 % of control and the T/C (dose: 5.0 mg/kg/injection, schedule: Q01DX009 (ip), vehicle: Klucel (hydroxypropylcellulose) (HPC)) was 96 % of control. For the same compound, the T/C (dose: 10.0 mg/kg/injection, schedule: Q01DX001 (ip), vehicle: Klucel (hydroxypropylcellulose) (HPC)) was 100 % of control and the T/C (dose: 10.0 mg/kg/injection, schedule: Q01DX009 (ip), vehicle: Klucel (hydroxypropylcellulose) (HPC)) was 113 % of control.
For C/C(=N/NC(N)=S)c1c(C)[nH]c2ccccc12, the T/C (dose: 10.0 mg/kg/injection, schedule: Q01DX001 (ip), vehicle: acetone) was 96 % of control, the T/C (dose: 20.0 mg/kg/injection, schedule: Q01DX001 (ip), vehicle: acetone) was 96 % of control and the T/C (dose: 40.0 mg/kg/injection, schedule: Q01DX001 (ip), vehicle: acetone) was 95 % of control.
With Nc1ccc(CCc2nc(N)nc(N)c2-c2ccc(Cl)cc2)cc1 the T/C [5] was 106 % of control, the T/C [6] was 104 % of control and the T/C (dose: 400.0 mg/kg/injection, schedule: Q04DX003 (ip), vehicle: Klucel (hydroxypropylcellulose) (HPC)) was 101 % of control.
For [N-]=[N+]=Nc1ccc(C(=O)NCc2cnc(N)nc2N)cc1, the T/C (dose: 100.0 mg/kg/injection, schedule: Q04DX002 (ip), vehicle: saline with Tween-80) was 98 % of control.
For O=C1c2ccccc2C(=O)c2c(O)c3c(c(O)c21)CC=CC3, the T/C (dose: 0.25 mg/kg/injection, schedule: Q04DX003 (ip), vehicle: saline with Tween-80) was 94 % of control, the T/C (dose: 0.5 mg/kg/injection, schedule: Q04DX003 (ip), vehicle: saline with Tween-80) was 104 % of control and the T/C (dose: 1.0 mg/kg/injection, schedule: Q04DX003 (ip), vehicle: saline with Tween-80) was 100 % of control. For the same compound, the T/C (dose: 2.0 mg/kg/injection, schedule: Q04DX003 (ip), vehicle: saline with Tween-80) was 104 % of control, the T/C (dose: 4.0 mg/kg/injection, schedule: Q04DX003 (ip), vehicle: saline with Tween-80) was 102 % of control and the T/C (dose: 6.0 mg/kg/injection, schedule: Q04DX003 (ip), vehicle: saline with Tween-80) was 102 % of control. The T/C (dose: 8.0 mg/kg/injection, schedule: Q04DX003 (ip), vehicle: saline with Tween-80) was 93 % of control, the T/C (dose: 12.0 mg/kg/injection, schedule: Q04DX003 (ip), vehicle: saline with Tween-80) was 103 % of control and the T/C (dose: 16.0 mg/kg/injection, schedule: Q04DX003 (ip), vehicle: saline with Tween-80) was 93 % of control. The T/C (dose: 24.0 mg/kg/injection, schedule: Q04DX003 (ip), vehicle: saline with Tween-80) was 102 % of control, the T/C (dose: 32.0 mg/kg/injection, schedule: Q04DX003 (ip), vehicle: saline with Tween-80) was 100 % of control and the T/C (dose: 48.0 mg/kg/injection, schedule: Q04DX003 (ip), vehicle: saline with Tween-80) was 103 % of control. For the same compound, the T/C (dose: 64.0 mg/kg/injection, schedule: Q04DX003 (ip), vehicle: saline with Tween-80) was 96 % of control and the T/C (dose: 128.0 mg/kg/injection, schedule: Q04DX003 (ip), vehicle: saline with Tween-80) was 105 % of control.
For O=CN(N=O)c1ccccc1, the T/C (dose: 75.0 mg/kg/injection, schedule: Q01DX001 (ip), vehicle: other) was 104 % of control, the T/C (dose: 150.0 mg/kg/injection, schedule: Q01DX001 (ip), vehicle: other) was 97 % of control and the T/C (dose: 300.0 mg/kg/injection, schedule: Q01DX001 (ip), vehicle: other) was 96 % of control and 104 % of control.
Cc1ccc(S(=O)(=O)OC2COC3C2OC2OC(C)(C)OC23)cc1 (stereo unspecified) was tested, and the T/C [9] was 112 % of control, the T/C [10] was 101 % of control and the T/C (dose: 400.0 mg/kg/injection, schedule: Q04DX003 (ip), vehicle: saline with Tween-80) was 106 % of control.
With C=CCON(CC=C)CC=C the T/C (dose: 100.0 mg/kg/injection, schedule: Q04DX002 (ip), vehicle: Klucel (hydroxypropylcellulose) (HPC)) was 102 % of control, the T/C (dose: 200.0 mg/kg/injection, schedule: Q04DX002 (ip), vehicle: Klucel (hydroxypropylcellulose) (HPC)) was 102 % of control and the T/C (dose: 400.0 mg/kg/injection, schedule: Q04DX002 (ip), vehicle: Klucel (hydroxypropylcellulose) (HPC)) was 94 % of control.
For COc1ccc(Nc2cc(N)nc(N)n2)c(=S)[nH]1, the T/C (dose: 100.0 mg/kg/injection, schedule: Q04DX003 (ip), vehicle: saline) was 97 % of control, the T/C (dose: 200.0 mg/kg/injection, schedule: Q04DX003 (ip), vehicle: saline) was 97 % of control and the T/C (dose: 400.0 mg/kg/injection, schedule: Q04DX003 (ip), vehicle: saline) was 93 % of control.
For CCCCOc1cc(C(=O)O)ccc1[N+](=O)[O-], the T/C (dose: 50.0 mg/kg/injection, schedule: Q01DX009 (ip), vehicle: saline with Tween-80) was 97 % of control, the T/C (dose: 50.0 mg/kg/injection, schedule: Q04DX003 (ip), vehicle: saline with Tween-80) was 96 % of control and the T/C (dose: 100.0 mg/kg/injection, schedule: Q01DX009 (ip), vehicle: saline with Tween-80) was 98 % of control. The T/C [9] was 91 % of control and the T/C [10] was 102 % of control.
In the case of CN(C)CCCN1CC2CCCC1O2 (stereo unspecified), the T/C [2] is reported as 90 % of control, the T/C [4] is reported as 102 % of control and the T/C [7] is reported as 100 % of control. For the same compound, the T/C [8] was 94 % of control.
c1ccc(P2(c3ccccc3)=NP(c3ccccc3)(c3ccccc3)=NP(c3ccccc3)(c3ccccc3)=N2)cc1 was tested, and the T/C [3] was 89 % of control, the T/C (dose: 100.0 mg/kg/injection, schedule: Q01DX009 (ip), vehicle: saline) was 86 % of control and the T/C (dose: 200.0 mg/kg/injection, schedule: Q01DX009 (ip), vehicle: saline) was 88 % of control.

Source: PubChem BioAssay AID248 (DTP/NCI, 2004)
